From PubChem BioAssay AID686920 (Broad Institute, 2013) come the findings set out here.

Molecules are shown by their SMILES.

For the test, the system named is A673 NR0B1-luciferase reporter, viability-normalised luminescence. Briefly: NR0B1 reporter signal reduction in A673 cells – cell-based, luciferase luminescence, cherry-pick, EWS/Fli inhibitor project, dose response (AID 686920).
With `CC(=O)Oc1ccc(-c2ccc(C(=O)Nc3cccc(S(=O)(=O)N4CCOCC4)c3)cc2)cc1`, the AC35 is 12.9 µM.

In the case of `Cc1ccc(S(=O)(=O)Nc2ccc3c(c2)C(=O)N([C@@H](C)CO)C[C@@H](C)[C@@H](CN(C)Cc2ccc(C(=O)Nc4ccccc4N)cc2)O3)cc1`, the AC35 was 6.44 µM.

Take `C[C@H]1CN([C@@H](C)CO)C(=O)Cc2cc(NC(=O)CCC(F)(F)F)ccc2O[C@H]1CN(C)Cc1ccc(C(=O)Nc2ccccc2N)cc1`: the AC35 is 6.66 µM.

In the case of `O=C(Nc1ccc(OC(=O)N2CCCCC2)cc1)N1CCOCC1`, the AC35 is 4.3 µM.

In the case of `Cc1nc2ncccn2c1-c1csc(Nc2ccc(O)cc2)n1`, the AC35 is 8.68 µM.

Turning to `Nc1ccc2oc(-c3cc(Br)ccc3Cl)nc2c1`, the AC35 is 15 µM.

In the case of `O=C1NC(=O)N(Cc2ccc(F)cc2)C(=O)/C1=C\C=C\c1ccco1`, the AC35 is 7.32 µM.

Consider `CC1=NN(c2ccc(C)cc2)C(=O)/C1=C\C=C\c1ccccc1`, for which the AC35 is 10.2 µM.

On to `CCCNC(=O)N1[C@H](C#N)[C@H](c2ccc(C#Cc3cccc(F)c3)cc2)[C@H]1CO`, for which the AC35 was 8.47 µM.

For the compound `COc1cccc(CN2CCC2(C)C(=O)Nc2cccc3cccnc23)c1F` (stereo unspecified), the AC35 is 14.7 µM.

Turning to `Cc1ccc(C)c(S(=O)(=O)N2CCN(c3ncnc4sccc34)CC2)c1`, the AC35 was 3.63 µM.

Consider `COc1ccc(C2=NNC(=Nc3cc(S(=O)(=O)N(C)C)ccc3C)SC2)c(OC)c1`, for which the AC35 was 9.53 µM.

For `N#C[C@H]1N[C@H](CO)[C@H]1c1ccc(C#Cc2ccc(F)cc2)cc1`, the AC35 is 0.123 µM.

Consider `O=C1C(=O)N(CCS(=O)(=O)c2ccccc2)c2ccc(Cl)cc21`, for which the AC35 is 12.2 µM.

Take `NC1=CC(=O)C(=O)c2cccnc21`: the AC35 was 14 µM.

With `O=C1CCC2S/C(=C/Nc3ccc(C(F)(F)F)cc3)C(=O)N12` (stereo unspecified), the AC35 was 0.385 µM.

With `C=C1C(=O)OC2C1CCC(C)C1C=CC(=O)C12C` (stereo unspecified), the AC35 was 15.5 µM.

For `CCOc1ccc(C(c2c(NC(=O)c3ccccc3)sc(C)c2C)N2CCN(CCO)CC2)cc1` (stereo unspecified), the AC35 was 46.3 µM.

As to `CN(C)c1ccc(N=Nc2nc3ccccc3n2C)cc1`, the AC35 was 12.5 µM.

Consider `O=C(CCCN1C(=O)/C(=C/c2ccccc2Cl)SC1=S)NNC(=O)c1ccc(Cl)cc1`, for which the AC35 was 8.68 µM.

In the case of `C=C(C(=O)c1ccccc1)C(C)C(=C)C(=O)c1ccccc1`, the AC35 was 5.4 µM.

Take `C=C1C(=O)OC2C1CCC(C)C1(O)C=CC(=O)C21C` (stereo unspecified): the AC35 is 11.5 µM.

For `BrC(=C\c1ccccc1)/C=N/n1cnnc1`, the AC35 was 7.17 µM.

Turning to `C[C@@H]1CN([C@H](C)CO)C(=O)c2cc(C#CCc3ccccc3)cnc2O[C@@H]1CN(C)Cc1cccc(F)c1`, the AC35 is 46.1 µM.

On to `CCCCNC(=O)C(c1ccc(OCC(=O)OC)c(C(=O)OC)c1)N(CCOC)C(=O)CCCCCN1C(=O)NC(c2ccc(-c3ccccc3)cc2)C(C(=O)OCc2ccccc2)=C1C` (stereo unspecified), for which the AC35 was 40.4 µM.

Consider `COc1ccc(/C=C2\SC(=O)N(CCCC(=O)Nc3ccc(C(=O)O)cc3)C2=O)cc1`, for which the AC35 is 0.504 µM.

As for `N#CC(C#N)=C1C=CC=CN1/C(=C\c1ccco1)C(=O)c1ccc(Cl)cc1`, the AC35 is 7.6 µM.

For `C[C@@H]1CN([C@H](C)CO)C(=O)c2cc(NC(=O)Nc3ccccc3)ccc2O[C@@H]1CN(C)Cc1ccc(C(=O)Nc2ccccc2N)cc1`, the AC35 is 8.74 µM.

Regarding `C(=Cc1nc2ccccc2o1)c1ccc2c(c1)OCO2`, the AC35 is 4.5 µM.

Take `Cc1ccccc1NC(=O)C(=Cc1ccc(C(=O)O)cc1)C(=O)Nc1ccccc1C`: the AC35 is 5.63 µM.

Consider `CN1C/C(=C/c2ccsc2)C(=O)/C(=C/c2ccsc2)C1`, for which the AC35 was 9.82 µM.

Take `COc1ccc(/C=C2\SC(=O)N(CCCC(=O)Nc3cc(Cl)ccc3C(=O)O)C2=O)cc1`: the AC35 was 0.169 µM.

`Cc1ccc(S(=O)(=O)N(C)C[C@@H]2Oc3cc(C#Cc4ccncc4)ccc3S(=O)(=O)N([C@@H](C)CO)C[C@H]2C)cc1`: the AC35 is 9.88 µM.

Consider `Cc1ccc(C(=O)CN2C(=O)c3ccccc3S2(=O)=O)cc1`, for which the AC35 was 1.97 µM.

On to `Cc1c(-c2nc(-c3ccc(C(C)(C)C)cc3)no2)n(C)oc1=O`, for which the AC35 was 35.5 µM.

`Cc1ccc(/C=C2\SC(=S)N(CCCC(=O)NNC(=O)c3ccccc3O)C2=O)cc1`: the AC35 was 2.09 µM.

In the case of `CCc1nc(N)nc(N)c1-c1ccc(Cl)c(N=[N+]=[N-])c1`, the AC35 is 6.23 µM.

With `CC(C)(C)c1ccc(/C=N/Nc2ccc(C(=O)O)cc2)cc1`, the AC35 is 2.22 µM.

`C[C@H](CO)N1C[C@H](C)[C@H](CN(C)Cc2ccc(C(=O)Nc3ccccc3N)cc2)Oc2c(cccc2N(C)C)C1=O`: the AC35 was 12.9 µM.

Turning to `CCCC[C@@H]1Cc2[nH][nH]c(=O)c2[C@H](c2ccc3ccccc3c2)O1`, the AC35 is 11.8 µM.

Regarding `O=C1C(=O)N(CCS(=O)(=O)c2ccccc2)c2ccccc21`, the AC35 was 20.7 µM.

Take `COc1ccc(S(=O)(=O)Nc2cccc3c2O[C@H](CN(C)Cc2ccc(C(=O)Nc4ccccc4N)cc2)[C@H](C)CN([C@@H](C)CO)C3=O)cc1`: the AC35 is 5.64 µM.

As for `Nc1ccc(-c2cc3ccccc3oc2=O)cc1`, the AC35 was 0.208 µM.

In the case of `CC1(C(=O)NCc2ccco2)Cc2c(-c3cccc(C(N)=O)c3)ccnc2O1` (stereo unspecified), the AC35 was 5.37 µM.

With `C[C@@H]1CN([C@H](C)CO)S(=O)(=O)c2ccc(C#Cc3ccncc3)cc2O[C@@H]1CN(C)C(=O)Nc1ccc2c(c1)OCO2`, the AC35 was 24.5 µM.

`O=c1ccc2ccccc2c2ccccc12`: the AC35 was 8.15 µM.

Take `O=C(N/N=C/c1cccs1)c1n[nH]c2c1CCCC2`: the AC35 is 4.03 µM.

For the compound `COc1ccc2oc(C(=O)NCCc3ccccc3)c(C)c2c1`, the AC35 is 6.25 µM.

In the case of `N#CC1=C(N)Oc2cc(N)ccc2C1c1cccc(F)c1` (stereo unspecified), the AC35 is 1.96 µM.

Turning to `Cc1ccc(S(=O)(=O)Nc2ccc3c(c2)C(=O)N([C@@H](C)CO)C[C@H](C)[C@@H](CN(C)Cc2ccc(C(F)(F)F)cc2)OCCCC[C@@H](C)O3)cc1`, the AC35 is 10.2 µM.

Consider `Cc1cc(-c2nc3cc(F)ccc3s2)ccc1N`, for which the AC35 was 8.89 µM.

Take `Cc1ccc(C(C(=O)NCc2ccco2)N(C(=O)CNC(=O)c2cccs2)c2c(C)cc(C)cc2C)cc1` (stereo unspecified): the AC35 was 42 µM.

For `Cc1cc(-c2nc3ccccc3s2)ccc1N`, the AC35 was 7.98 µM.

For the compound `COc1ccccc1C(CCNCc1ccc(N(C)C)cc1)c1ccc(OC(C)C)cc1` (stereo unspecified), the AC35 is 24.9 µM.

In the case of `CC(C)CC(NC(=O)c1cccs1)c1nnc(SCc2ccc(Cl)c(Cl)c2)n1C` (stereo unspecified), the AC35 was 39.5 µM.

Turning to `COc1ccc(S(=O)(=O)Nc2ccc3c(c2)C(=O)N([C@H](C)CO)C[C@@H](C)[C@@H](CN(C)Cc2ccc(C(=O)Nc4ccccc4N)cc2)O3)cc1`, the AC35 was 5.11 µM.

Turning to `COc1ccc(S(=O)(=O)N2CCCc3nc(-c4ccc(F)cc4)ccc32)cc1`, the AC35 is 4.87 µM.

As for `CCn1c(C)cc(C(=O)CN2C(=O)c3ccccc3S2(=O)=O)c1C`, the AC35 was 1.23 µM.

Regarding `Nc1ccc2c(c1)OC1(CCCC1)O2`, the AC35 was 6.63 µM.

`C[C@@H]1CCCCO[C@@H](CN(C)C(=O)Cc2ccccc2)[C@@H](C)CN([C@@H](C)CO)C(=O)c2cc(NS(=O)(=O)c3ccc(F)cc3)ccc2O1`: the AC35 is 43.9 µM.

Turning to `O=C(Nc1ccccc1F)N1CCCCN2[C@H](CO)[C@H](c3ccc(/C=C/c4ccccc4)cc3)[C@H]2C1`, the AC35 is 14 µM.

Take `O=c1cc(CN2CCN(Cc3ccccc3)CC2)c2ccc(O)c(O)c2o1`: the AC35 is 23.3 µM.

As to `OC[C@H]1O[C@@H](n2cnc3c(NCc4ccco4)ncnc32)[C@H](O)[C@@H]1O`, the AC35 is 4.99 µM.

As to `COc1cccc(OC)c1C(=O)Nc1cc(C)nn1-c1nc2ccccc2[nH]1`, the AC35 is 26.7 µM.

In the case of `COc1ccccc1N(/N=C1\Sc2ccccc2C1=O)C(C)=O`, the AC35 was 23.6 µM.

`COc1ccc(/C=C/C(=O)c2cc(F)ccc2OC(=O)c2ccccc2OC)cc1OC`: the AC35 is 1.59 µM.

Consider `COc1cc(-c2cnc3c(NC=O)cc(-c4cccc(NC(C)=O)c4)cn23)cc(OC)c1OC`, for which the AC35 was 0.298 µM.

`C[C@@H]1CN([C@H](C)CO)S(=O)(=O)c2ccc(C#CC3CC3)cc2O[C@@H]1CN(C)Cc1ccccc1F`: the AC35 is 30.4 µM.

On to `C[C@]12CC[C@H](O)C[C@H]1CC[C@@H]1C2CC[C@]2(C)[C@@H](C3=CC(=O)OC3)[C@@H](O)C[C@]12O` (stereo partly specified), for which the AC35 is 2.86 µM.

In the case of `C[C@]12CCC3C(CCC4=CC(O)CC[C@@]43/C=N/O)C1(O)CCC2C1=CC(=O)OC1` (stereo partly specified), the AC35 was 0.529 µM.

With `COc1cc(OC)cc(-c2cc3nc(C)c(CCC(=O)NCc4ccccc4)c(C)n3n2)c1`, the AC35 is 3.44 µM.

As for `COc1ccc(OC)c(/C=C/c2ccnc3ccccc23)c1`, the AC35 was 2.4 µM.

With `COCC(=O)Nc1ccc2c(c1)[C@@H]1C[C@@H](CC(=O)NCc3ccc(-c4ccccc4)cc3)O[C@@H](CO)[C@@H]1O2`, the AC35 was 10.1 µM.

Regarding `O=C1c2ccccc2C(=O)c2cc(N3CCCCC3)ccc21`, the AC35 was 2.65 µM.

Consider `S=c1[nH]nc(-c2cc(-c3ccccc3)n[nH]2)n1/N=C/C(Br)=C/c1ccccc1`, for which the AC35 is 10.4 µM.

Regarding `O=C(NCc1ccc(F)cc1)N1[C@H]2CC[C@@H]1C=C(c1ccc(F)cc1OCc1ccccc1)C2`, the AC35 was 9.93 µM.

Take `COc1ccc(C(=O)Nc2cccc(C(=O)N/N=C/c3ccc(OC)cc3OC)c2)cc1`: the AC35 is 31.2 µM.

For the compound `COc1ccc(/C=N/Nc2ccc(C(=O)O)cc2)cc1Br`, the AC35 was 3.93 µM.

As for `CN1c2ccc(-c3ccc(C#N)cc3)cc2[C@H]2[C@H](CCN2S(=O)(=O)c2cccc(F)c2)[C@H]1CO`, the AC35 is 1.74 µM.

Regarding `Cc1ccc(/C=N/Nc2ccc3ccccc3n2)o1`, the AC35 is 4.21 µM.

Consider `COc1ccc(OC)c(-c2nnc3n2N=C(c2ccc(OC)c(OC4CCCC4)c2)CS3)c1`, for which the AC35 was 12.6 µM.

With `O=C1c2ccccc2C(=O)N1CCCCNc1ccccc1`, the AC35 was 3.44 µM.

In the case of `CC[C@@H]1C[C@H]2CC[C@H](O2)[C@H](C)C(=O)O[C@@H](C)C[C@@H]2CC[C@@H](O2)[C@@H](C)C(=O)O[C@H](C)C[C@H]2CC[C@H](O2)[C@H](C)C(=O)O[C@@H](C)C[C@@H]2CC[C@@H](O2)[C@@H](C)C(=O)O1`, the AC35 was 0.0992 µM.

`CCOC(=O)Cc1csc(NC(=S)NC(=O)c2ccc(C)cc2)n1`: the AC35 was 0.265 µM.

As to `CN(C)c1ccc(-c2ccnc3c2CC(C)(C(=O)NCc2ccco2)O3)cc1` (stereo unspecified), the AC35 is 6.85 µM.

With `CC(C)c1oc(=O)cc2c1[C@@H](O)[C@H]1OC(=O)[C@@]3(C)CC[C@@H](O)[C@@]2(C)C13` (stereo partly specified), the AC35 is 4.21 µM.
